Experimental data taken from ChEMBL document CHEMBL4507304, “Data for DCP probe TP-021” (2021).

Assays:
[1] = tested on: Epidermal growth factor receptor (Homo sapiens), P00533 [UNDEFINED MUTATION]; details: Compound concentration 1000.0 nM
[2] = biological target: 5-hydroxytryptamine receptor 2C (Homo sapiens) (UniProt P28335); details: Compound concentration 10.0 uM
[3] = biological target: Ephrin type-B receptor 6 (Homo sapiens) (UniProt O15197); details: Compound concentration 1000.0 nM
[4] = biological target: Serine/threonine-protein kinase 16 (Homo sapiens) (UniProt O75716); details: Compound concentration 1000.0 nM
Serine/threonine-protein kinase 16 (Homo sapiens), sequence (O75716 whole entry): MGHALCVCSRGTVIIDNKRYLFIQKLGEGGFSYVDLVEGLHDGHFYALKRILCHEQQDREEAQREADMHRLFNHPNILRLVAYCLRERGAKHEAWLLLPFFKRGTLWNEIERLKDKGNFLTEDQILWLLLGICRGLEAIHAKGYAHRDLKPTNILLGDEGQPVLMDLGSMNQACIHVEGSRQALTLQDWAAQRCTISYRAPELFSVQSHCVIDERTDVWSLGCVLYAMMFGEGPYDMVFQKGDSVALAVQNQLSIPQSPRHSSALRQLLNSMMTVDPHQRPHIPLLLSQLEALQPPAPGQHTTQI

[5] = tested on: Epidermal growth factor receptor (Homo sapiens), P00533 [L858R,T790M]; details: Compound concentration 1000.0 nM
[6] = biological target: Macrophage colony-stimulating factor 1 receptor (Homo sapiens) (UniProt P07333); details: Compound concentration 1000.0 nM
Macrophage colony-stimulating factor 1 receptor (Homo sapiens), sequence (P07333 whole entry): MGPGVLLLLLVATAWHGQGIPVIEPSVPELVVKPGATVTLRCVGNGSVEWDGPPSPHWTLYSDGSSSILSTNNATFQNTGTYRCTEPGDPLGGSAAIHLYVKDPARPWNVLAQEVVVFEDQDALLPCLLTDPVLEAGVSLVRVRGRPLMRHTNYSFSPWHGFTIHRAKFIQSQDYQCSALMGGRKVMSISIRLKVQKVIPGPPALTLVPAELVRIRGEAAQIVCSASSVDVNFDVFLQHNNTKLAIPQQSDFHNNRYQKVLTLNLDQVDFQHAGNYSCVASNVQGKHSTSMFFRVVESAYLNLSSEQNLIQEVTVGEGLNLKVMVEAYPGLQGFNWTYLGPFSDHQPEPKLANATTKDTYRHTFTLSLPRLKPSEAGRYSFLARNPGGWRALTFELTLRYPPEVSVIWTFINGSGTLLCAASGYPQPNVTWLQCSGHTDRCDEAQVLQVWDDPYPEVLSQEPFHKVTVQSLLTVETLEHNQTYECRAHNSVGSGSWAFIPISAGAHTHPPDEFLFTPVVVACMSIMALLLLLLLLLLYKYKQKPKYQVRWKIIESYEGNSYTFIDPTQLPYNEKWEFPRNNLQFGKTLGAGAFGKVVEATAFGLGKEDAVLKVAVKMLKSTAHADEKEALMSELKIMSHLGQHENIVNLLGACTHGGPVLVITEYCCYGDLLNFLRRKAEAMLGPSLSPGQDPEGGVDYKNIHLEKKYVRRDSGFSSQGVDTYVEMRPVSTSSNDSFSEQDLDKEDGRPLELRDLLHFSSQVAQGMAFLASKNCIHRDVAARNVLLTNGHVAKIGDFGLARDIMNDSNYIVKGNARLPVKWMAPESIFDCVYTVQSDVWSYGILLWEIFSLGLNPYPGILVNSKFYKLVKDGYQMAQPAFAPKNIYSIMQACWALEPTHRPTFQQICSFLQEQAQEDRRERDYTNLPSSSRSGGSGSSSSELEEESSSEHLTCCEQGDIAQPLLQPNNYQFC

[7] = biological target: Serine/threonine-protein kinase 4 (Homo sapiens) (UniProt Q13043); details: Compound concentration 1000.0 nM
Serine/threonine-protein kinase 4 (Homo sapiens), sequence (Q13043 whole entry): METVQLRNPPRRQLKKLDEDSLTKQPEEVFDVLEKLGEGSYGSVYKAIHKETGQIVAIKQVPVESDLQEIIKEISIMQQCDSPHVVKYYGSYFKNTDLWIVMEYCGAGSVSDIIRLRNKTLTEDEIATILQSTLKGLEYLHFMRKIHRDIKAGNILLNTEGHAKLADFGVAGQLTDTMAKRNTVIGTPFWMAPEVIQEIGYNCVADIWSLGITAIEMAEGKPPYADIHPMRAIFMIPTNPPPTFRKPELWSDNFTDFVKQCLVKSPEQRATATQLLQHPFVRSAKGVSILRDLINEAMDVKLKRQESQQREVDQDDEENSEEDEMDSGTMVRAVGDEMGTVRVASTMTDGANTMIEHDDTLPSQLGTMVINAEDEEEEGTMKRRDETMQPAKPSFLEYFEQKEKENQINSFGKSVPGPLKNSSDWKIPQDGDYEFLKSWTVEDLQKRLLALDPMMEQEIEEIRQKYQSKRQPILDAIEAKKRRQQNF

[8] = biological target: Dual specificity tyrosine-phosphorylation-regulated kinase 2 (Homo sapiens) (UniProt Q92630); details: Compound concentration 1000.0 nM
Dual specificity tyrosine-phosphorylation-regulated kinase 2 (Homo sapiens), sequence (Q92630 whole entry): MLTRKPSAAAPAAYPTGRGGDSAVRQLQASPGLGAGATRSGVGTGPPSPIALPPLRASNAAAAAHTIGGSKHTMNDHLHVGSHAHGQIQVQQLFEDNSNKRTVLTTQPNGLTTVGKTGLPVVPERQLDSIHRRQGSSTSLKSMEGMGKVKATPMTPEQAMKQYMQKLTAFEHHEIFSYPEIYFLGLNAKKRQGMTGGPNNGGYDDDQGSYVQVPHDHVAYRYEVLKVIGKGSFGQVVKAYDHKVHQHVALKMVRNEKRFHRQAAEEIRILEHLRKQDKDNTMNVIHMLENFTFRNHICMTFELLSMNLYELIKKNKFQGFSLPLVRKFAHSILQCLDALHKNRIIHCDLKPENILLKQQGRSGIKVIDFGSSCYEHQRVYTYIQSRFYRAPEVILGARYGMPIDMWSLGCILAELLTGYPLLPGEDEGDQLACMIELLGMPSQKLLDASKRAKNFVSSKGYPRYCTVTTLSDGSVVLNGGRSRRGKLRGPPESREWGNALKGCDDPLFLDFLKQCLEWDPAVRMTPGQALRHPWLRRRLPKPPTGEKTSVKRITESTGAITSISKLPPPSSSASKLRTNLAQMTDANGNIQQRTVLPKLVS

[9] = biological target: Interferon-induced, double-stranded RNA-activated protein kinase (Homo sapiens) (UniProt P19525); details: Compound concentration 1000.0 nM
[10] = biological target: cAMP-dependent protein kinase catalytic subunit alpha (Homo sapiens) (UniProt P17612); details: Compound concentration 1000.0 nM
[11] = biological target: Homeodomain-interacting protein kinase 4 (Homo sapiens) (UniProt Q8NE63); details: Compound concentration 1000.0 nM
Homeodomain-interacting protein kinase 4 (Homo sapiens), sequence (Q8NE63 whole entry, canonical isoform): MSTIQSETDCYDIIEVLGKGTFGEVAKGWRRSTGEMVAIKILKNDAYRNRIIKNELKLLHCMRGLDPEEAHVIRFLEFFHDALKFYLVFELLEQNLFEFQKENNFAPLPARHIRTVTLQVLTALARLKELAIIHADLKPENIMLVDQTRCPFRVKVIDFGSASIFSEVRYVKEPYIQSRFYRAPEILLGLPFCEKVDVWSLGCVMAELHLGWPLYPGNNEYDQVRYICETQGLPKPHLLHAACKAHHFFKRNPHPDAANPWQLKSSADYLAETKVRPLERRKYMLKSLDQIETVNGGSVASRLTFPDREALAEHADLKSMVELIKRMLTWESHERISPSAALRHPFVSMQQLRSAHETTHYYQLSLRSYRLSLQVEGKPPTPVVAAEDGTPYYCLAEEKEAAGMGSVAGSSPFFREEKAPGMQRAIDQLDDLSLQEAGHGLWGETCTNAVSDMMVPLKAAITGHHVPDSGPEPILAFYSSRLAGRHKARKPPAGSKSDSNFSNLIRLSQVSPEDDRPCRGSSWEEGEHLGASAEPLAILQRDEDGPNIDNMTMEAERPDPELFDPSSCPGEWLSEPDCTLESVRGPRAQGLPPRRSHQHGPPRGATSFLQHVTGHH

[12] = biological target: Phosphorylase b kinase gamma catalytic chain, skeletal muscle/heart isoform (Homo sapiens) (UniProt Q16816); details: Compound concentration 1000.0 nM
Phosphorylase b kinase gamma catalytic chain, skeletal muscle/heart isoform (Homo sapiens), sequence (Q16816 whole entry, looked up, canonical isoform): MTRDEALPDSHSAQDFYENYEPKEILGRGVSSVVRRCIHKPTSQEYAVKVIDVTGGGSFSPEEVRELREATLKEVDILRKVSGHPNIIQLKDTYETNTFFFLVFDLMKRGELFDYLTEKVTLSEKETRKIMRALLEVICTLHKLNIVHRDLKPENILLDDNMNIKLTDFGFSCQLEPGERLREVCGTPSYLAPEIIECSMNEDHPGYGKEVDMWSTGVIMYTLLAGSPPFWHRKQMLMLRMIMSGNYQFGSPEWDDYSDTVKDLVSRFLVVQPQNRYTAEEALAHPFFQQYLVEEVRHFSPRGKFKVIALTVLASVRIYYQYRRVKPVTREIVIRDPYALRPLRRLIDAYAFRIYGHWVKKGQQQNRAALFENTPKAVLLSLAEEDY

[13] = biological target: Serine/threonine-protein kinase 38-like (Homo sapiens) (UniProt Q9Y2H1); details: Compound concentration 1000.0 nM
[14] = biological target: Phosphatidylinositol 5-phosphate 4-kinase type-2 beta (Homo sapiens) (UniProt P78356); details: Compound concentration 1000.0 nM
Phosphatidylinositol 5-phosphate 4-kinase type-2 beta (Homo sapiens), sequence (P78356 whole entry): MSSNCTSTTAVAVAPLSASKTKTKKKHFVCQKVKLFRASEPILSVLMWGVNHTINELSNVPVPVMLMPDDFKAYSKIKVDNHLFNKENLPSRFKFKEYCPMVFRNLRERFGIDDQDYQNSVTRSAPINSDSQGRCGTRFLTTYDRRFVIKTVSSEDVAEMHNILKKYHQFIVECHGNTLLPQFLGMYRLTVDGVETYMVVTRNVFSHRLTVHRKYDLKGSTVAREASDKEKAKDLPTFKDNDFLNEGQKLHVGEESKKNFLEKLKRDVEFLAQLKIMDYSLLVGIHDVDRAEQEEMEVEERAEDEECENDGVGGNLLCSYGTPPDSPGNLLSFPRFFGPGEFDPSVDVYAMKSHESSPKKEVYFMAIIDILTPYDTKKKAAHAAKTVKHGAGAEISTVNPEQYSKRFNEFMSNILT

[15] = biological target: D(2) dopamine receptor (Homo sapiens) (UniProt P14416); details: Compound concentration 10.0 uM
[16] = biological target: Serine/threonine-protein kinase Nek3 (Homo sapiens) (UniProt P51956); details: Compound concentration 1000.0 nM
[17] = biological target: Alpha-1A adrenergic receptor (Homo sapiens) (UniProt P35348); details: Compound concentration 10.0 uM
[18] = biological target: Phosphatidylinositol 4,5-bisphosphate 3-kinase catalytic subunit delta isoform (Homo sapiens) (UniProt O00329); details: Compound concentration 1000.0 nM
[19] = biological target: Beta-3 adrenergic receptor (Homo sapiens) (UniProt P13945); details: Compound concentration 10.0 uM
[20] = biological target: D(1B) dopamine receptor (Homo sapiens) (UniProt P21918); details: Compound concentration 10.0 uM

Ephrin type-B receptor 6 (Homo sapiens), sequence (O15197 whole entry): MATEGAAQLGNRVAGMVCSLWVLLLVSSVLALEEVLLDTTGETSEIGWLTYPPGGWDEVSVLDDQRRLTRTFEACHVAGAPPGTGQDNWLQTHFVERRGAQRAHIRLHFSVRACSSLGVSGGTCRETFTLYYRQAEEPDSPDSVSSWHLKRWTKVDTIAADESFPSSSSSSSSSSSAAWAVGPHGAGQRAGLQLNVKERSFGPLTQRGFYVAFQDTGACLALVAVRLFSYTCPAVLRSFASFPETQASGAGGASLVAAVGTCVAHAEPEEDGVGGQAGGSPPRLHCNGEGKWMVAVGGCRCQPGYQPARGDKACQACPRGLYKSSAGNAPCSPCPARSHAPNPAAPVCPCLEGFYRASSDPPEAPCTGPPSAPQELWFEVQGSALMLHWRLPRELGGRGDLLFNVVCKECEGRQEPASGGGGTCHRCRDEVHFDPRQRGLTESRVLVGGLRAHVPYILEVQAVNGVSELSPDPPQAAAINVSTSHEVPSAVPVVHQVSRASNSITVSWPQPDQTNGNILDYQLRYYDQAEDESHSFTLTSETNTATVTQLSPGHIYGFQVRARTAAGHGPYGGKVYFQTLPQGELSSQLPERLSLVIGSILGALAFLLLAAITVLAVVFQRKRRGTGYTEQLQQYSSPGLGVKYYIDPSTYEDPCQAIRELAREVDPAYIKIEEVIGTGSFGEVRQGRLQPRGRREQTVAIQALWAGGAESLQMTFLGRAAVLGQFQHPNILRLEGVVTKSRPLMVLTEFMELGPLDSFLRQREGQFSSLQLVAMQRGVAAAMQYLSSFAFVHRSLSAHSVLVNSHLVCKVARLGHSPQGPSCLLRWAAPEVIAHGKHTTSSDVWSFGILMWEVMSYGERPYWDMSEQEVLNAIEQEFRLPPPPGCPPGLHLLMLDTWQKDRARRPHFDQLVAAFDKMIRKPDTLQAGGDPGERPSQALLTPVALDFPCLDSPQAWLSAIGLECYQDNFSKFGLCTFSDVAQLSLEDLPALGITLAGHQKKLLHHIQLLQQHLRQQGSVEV

N#Cc1ccc(Nc2ccc3[nH]c(=O)[nH]c3c2)c(Cl)c1
inactive: residual activity [1] 100% | inhibition [2] -9.96% | residual activity [3] 100% | residual activity [4] 91% | residual activity [5] 79% | residual activity [6] 100% | residual activity [7] 100% | residual activity [8] 85% | residual activity [9] 57% | residual activity [10] 96% | residual activity [11] 100% | residual activity [12] 100% | residual activity [13] 53% | residual activity [14] 74%

O=C1CCc2cc(Nc3cc(OC4CCOCC4)c([N+](=O)[O-])cc3Cl)ccc2N1
inactive: residual activity [1] 92% | inhibition [15] 2.86% | residual activity [16] 100% | inhibition [17] -8.76% | residual activity [3] 100% | residual activity [4] 93% | residual activity [5] 76% | residual activity [6] 95% | residual activity [7] 100% | residual activity [8] 97% | residual activity [18] 94% | residual activity [10] 96% | residual activity [11] 98% | residual activity [12] 100% | inhibition [19] 7.73% | inhibition [20] 13% | residual activity [14] 100%
